Common to all, as to assay type: in vivo
In one series the test system is various microorganisms. Kind of series: Antiinfectious effect in mice. The following applies: similar experiments; no data given. The source says:
(§1) Std-ddY male mice weighing about 23 g (each group: 8 mice) were used. Test compounds dissolved in a physiological saline solution were each intravenously administered to mice once a day 1, 2 and 3 days before the infection. Twenty-four hours after the final administration of test compounds, the mice were infected with various microorganisms suspended in saline (in case of Staphylococcus aureus and Candida albicans) or in Trypto-Soy Broth (manufactured by Eiken Chemical Co., Ltd., Japan) (in case of Pseudomonas aeruginosa and Escherichia coli) under the conditions as shown in Table 1. When the experiment was repeated twice or more, the data were pooled.
Besides, as to the compounds of Examples 8, 18, 36, 37 and 45 (derivatives of GMP3 -A), similar experiments were done.

A further series in a line: Pyrogenicity in rabbits. The following applies: for Pyrogenicity in rabbits: injected into ear vein, three rabbits per group. The protocol: Rabbits (each group: three rabbits) were used. Test compounds dissolved in a physiological saline solution were each injected into ear vein of rabbits. The difference between maximum body temperature within three hours after the injection of test compound and the body temperature before the injection was regarded as rise in body temperature. The degree of pyrogenicity was evaluated according to the following criterion: […]

In series [1] the test system is Pseudomonas aeruginosa No. 12. Kind of series: Prophylactic effect on experimental infection, Pseudomonas aeruginosa. The following applies: Std-ddY male mice, 7 days after infection.
From the text: as §1
(§2) ^a Test compounds were intravenously administered once a day 1, 2 and
(§3) 3 days before infection.
(§4) ^b Figures represent (number of survivals)/(number of animals tested)
(§5) and figures in parenthesis represent percent survival.

In series [2] the test system is Staphylococcus aureus No. 50774. Kind of series: Prophylactic effect on experimental infection, Staphylococcus aureus. The following applies: Std-ddY male mice, 14 days after infection.
From the text: as §1, §2, §3, §4, §5

A further series deals with Candida albicans 3170. The series is described as follows: Prophylactic effect on experimental infection, Candida albicans. The following applies: Std-ddY male mice, 7 days after infection.
From the text: as §1
3170 fungal sus- infection
as §2, §3, §4, §5

The test system of another series is Escherichia coli P-5101. Kind of series: Prophylactic effect on experimental infection, Escherichia coli. The following applies: Std-ddY male mice, 7 days after infection.
From the text: as §1, §2, §3, §4, §5

[3] abbreviates: similar experiments, no data given.
[4] abbreviates: Dose 0.0125 mg/kg i.v. once a day 1, 2 and 3 days before infection.
Where [5] appears, read: Dose 0.05 mg/kg i.v. once a day 1, 2 and 3 days before infection.
Setting [6] is: Dose 0.2 mg/kg i.v. once a day 1, 2 and 3 days before infection.
[7] abbreviates: Dose 0.8 mg/kg i.v. once a day 1, 2 and 3 days before infection.
Where [8] appears, read: Dose 3.1 mg/kg i.v. once a day 1, 2 and 3 days before infection.
Setting [9] is: Dose 12.5 mg/kg i.v. once a day 1, 2 and 3 days before infection.
Where [10] appears, read: Dose 0.125 mg/kg i.v. once a day 1, 2 and 3 days before infection.
The mark [11] stands for this setting: Dose 50 mg/kg i.v. once a day 1, 2 and 3 days before infection.

For the compound `CCCCCCCCC=CCCCCCCCC(=O)NC(CCCC(NC(=O)CCC(NC(=O)C(C)NC(=O)C(C)OC1C(NC(C)=O)C(O)OC(CO)C1OC1OC(CO)C(O)C(O)C1NC(C)=O)C(N)=O)C(=O)[O-])C(N)=O.[Na+]` (stereo not shown) [Example 8], the “antiinfectious effect compared with GMP3 -A” value in the series on various microorganisms is on record as “more potent antiinfectious effect”. Also, the “pyrogenicity compared with GMP3 -A” value in “Pyrogenicity in rabbits” (setting [3]) was “less pyrogenicity than GMP3 -A”.

`CCCCCCCCCCCCCCCCCC(=O)NC(CCCC(NC(=O)CCC(NC(=O)C(C)NC(=O)C(C)OC1C(NC(C)=O)C(O)OC(CO)C1OC1OC(CO)C(O)C(O)C1NC(C)=O)C(N)=O)C(=O)[O-])C(N)=O.[Na+]` (stereo not shown) [Example 18]: in the series on various microorganisms, the “antiinfectious effect compared with GMP3 -A” value is “more potent antiinfectious effect”. Besides, in the series “Pyrogenicity in rabbits” (setting [3]), the “pyrogenicity compared with GMP3 -A” value was “less pyrogenicity than GMP3 -A”.

Take `CC(=O)NC(CCCC(NC(=O)CCC(NC(=O)C(C)NC(=O)C(C)OC1C(NC(C)=O)C(O)OC(CO)C1OC1OC(CO)C(O)C(O)C1NC(C)=O)C(N)=O)C(N)=O)C(N)=O` [Example 36, β-N-acetylglucosaminyl-(1→4)-N-acetylmuramyl-L-alanyl-D-isoglutaminyl-(L)-acetyl-(D)-meso-2,6-diaminopimelic acid-(D),(L)-diamide]: in the series “Pyrogenicity in rabbits” (rabbit, in vivo), the “pyrogenicity compared with GMP3 -A” value is on record as “by far the less than that of GMP3 -A”.

As to `CCCCCCCCCCNC(=O)C(CCCC(NC(C)=O)C(N)=O)NC(=O)CCC(NC(=O)C(C)NC(=O)C(C)OC1C(NC(C)=O)C(O)OC(CO)C1OC1OC(CO)C(O)C(O)C1NC(C)=O)C(N)=O` (stereo not shown) [Example 37], the “pyrogenicity compared with GMP3 -A” value in “Pyrogenicity in rabbits” (rabbit, in vivo) was “by far the less than that of GMP3 -A”.

With `CCCCCCCCCCCCCCCCCCNC(=O)C(CCCC(N)C(N)=O)NC(=O)CCC(NC(=O)C(C)NC(=O)C(C)OC1C(NC(C)=O)C(O)OC(CO)C1OC1OC(CO)C(O)C(O)C1NC(C)=O)C(N)=O.Cl` [Example 45, β-N-acetylglucosaminyl-(1→4)-N-acetylmuramyl-L-alanyl-D-isoglutaminyl-(L)-meso-2,6-diaminopimelic acid-(D)-amide-(L)-octadecylamide hydrochloride], the “pyrogenicity compared with GMP3 -A” value in “Pyrogenicity in rabbits” (rabbit, in vivo) is given as “by far the less than that of GMP3 -A”.

For `CC(=O)NC1C(OC2C(CO)OC(O)C(NC(C)=O)C2OC(C)C(=O)NC(C)C(=O)NC(CCC(=O)NC(CCCC(N)C(N)=O)C(=O)NC(C)C(=O)O)C(N)=O)OC(CO)C(O)C1O` [GMP4 -A, β-N-acetylglucosaminyl-(1→4)-N-acetylmuramyl-L-alanyl-D-isoglutaminyl-(L)-meso-2,6-diaminopimelic acid-(D)-amide-(L)-D-alanine, reference compound], the “(number of survivals)/(number of animals tested)” value in series [1] (setting [4]) was 12/40; in series [1] (setting [5]), 16/48; in series [1] (setting [6]), 23/56; in series [1] (setting [7]), 31/72; in series [1] (setting [8]) it was 27/64; in series [1] (setting [9]) it was 32/48. For the same compound, the “(number of survivals)/(number of animals tested)” value in series [2] (setting [5]) is on record as 3/24; in series [2] (setting [10]) it was 0/8; in series [2] (setting [6]) it was 6/16; in series [2] (setting [7]) it was 11/32; in series [2] (setting [8]), 11/32; in series [2] (setting [9]), 23/32. Further, the “(number of survivals)/(number of animals tested)” value is 2/8 in the series on Candida albicans 3170 (setting [8]); 4/8 in the series on Candida albicans 3170 (setting [9]); 6/8 with Candida albicans 3170 (setting [11]); 0/8 in the series on Escherichia coli P-5101 (setting [6]); 0/8 in the series on Escherichia coli P-5101 (setting [7]); 5/24 in the series on Escherichia coli P-5101 (setting [8]). The “(number of survivals)/(number of animals tested)” value in the series on Escherichia coli P-5101 (setting [9]) is given as 10/24; in the series with Escherichia coli P-5101 (setting [11]), 10/16. For the same compound, the percent survival came to 30% in series [1] (setting [4]); 33.3% in series [1] (setting [5]); 41.1% in series [1] (setting [6]); 43.1% in series [1] (setting [7]); 42.2% in series [1] (setting [8]); 66.7% in series [1] (setting [9]). In addition, the percent survival in series [2] (setting [5]) is 12.5%; in series [2] (setting [10]) it was 0%; in series [2] (setting [6]), 37.5%; in series [2] (setting [7]) it was 34.4%; in series [2] (setting [8]), 34.4%; in series [2] (setting [9]), 71.9%. In addition, the percent survival in the series on Candida albicans 3170 (setting [8]) came to 25%; in the series on Candida albicans 3170 (setting [9]), 50%; in the series with Candida albicans 3170 (setting [11]), 75%; in the series with Escherichia coli P-5101 (setting [6]), 0%; with Escherichia coli P-5101 (setting [7]), 0%; with Escherichia coli P-5101 (setting [8]), 20.8%. For the same compound, the values for the percent survival in the series on Escherichia coli P-5101 (setting [9]) and in the series with Escherichia coli P-5101 (setting [11]) were 41.7% and 62.5%, respectively. The Pyrogenicity in rabbits result is “- (one animal showed rise in body temperature of 0.6 °C or more)” in the series “Pyrogenicity in rabbits” (Dose 0.1 mg/rabbit); “+ (two or more animals showed rise in body temperature of 0.6 °C or more)” in “Pyrogenicity in rabbits” (Dose 0.3 mg/rabbit); “+ (two or more animals showed rise in body temperature of 0.6 °C or more)” in the series “Pyrogenicity in rabbits” (Dose 1 mg/rabbit); “+ (two or more animals showed rise in body temperature of 0.6 °C or more)” in the series “Pyrogenicity in rabbits” (Dose 3 mg/rabbit); “+ (two or more animals showed rise in body temperature of 0.6 °C or more)” in “Pyrogenicity in rabbits” (Dose 10 mg/rabbit).

The record behind these values is patent publication US4545932A, “Glucosaminyl muramyl peptide derivatives” (Dainippon Pharmaceutical Co., Ltd., priority 1982, dated 1985).
